Laboratory results taken from publication PMC12670317, “Targeted NAT10 Degradation by PROTAC NP1192 Suppresses Hypoxia-Adaptive Glycolysis and Reinvigorates CD8^+ Effector T‑Cell Function for Synergistic Cancer Immunotherapy” (ACS Central Science, 2025).
Read-outs that look alike come from different tables or passages of the source.

Experiments:
[1] = system: SiHa cells; test: SiHa cell viability IC50 (CCK-8); assay type: cell-based, human
Description: NAT10^± SiHa cells and SiHa cells treated with DMSO, Remodelin or NP1192 for 36 h were seeded into the wells of a 96-well microplate at identical densities of 2000 or 3000 cells per well. After the cells adhered to the well surface, 110 μL of a 1:10 mixture of CCK-8 reagent (Meilunbio, China) and RPMI 1640 medium was added to each well. The microplate was then incubated for another 2 h in the incubator, and the mixture was replaced with an equal volume of medium. A microplate reader (BioTek, US) was used to measure the absorption at a wavelength of 450 nm.

[2] = system: NP1192^Resist SiHa cells; test: IC50 and resistance index in NP1192-resistant SiHa cells (CCK-8); assay type: cell-based, human
Description: We generated Remodelin-resistant (Remodelin^Resist SiHa) and NP1192-resistant (NP1192^Resist SiHa) SiHa CCa cell lines by applying a stepwise dose escalation strategy, as previously described in the literature. To quantitatively assess resistance, we calculated the resistance index for each subline following the established methodologies. Briefly, 3000 cells per well were seeded in 96-well plates and treated with increasing concentrations of Remodelin or NP1192 (0, 10, 50, 100, and 150 μM) for 24 h. Following treatment, 10 μL of CCK-8 reagent was added to each well and incubated for an additional 2 h. Absorbance at 490 nm was measured, and the IC50 values were calculated using GraphPad Prism 9.0. The RI was defined as the ratio of the IC50 in resistant cells to that in parental cells.

[3] = system: cervical squamous cell carcinoma and endocervical adenocarcinoma (CESC) patient-derived organoids; test: ATP-based viability assay in patient-derived organoids, CESC; assay type: cell-based; settings: Homo sapiens, CESC PDOs, read-out: IC50, organoid viability
Description: (§1) Organoid culture was performed according to previously established protocols. Briefly, we procured patient-derived tissue samples provided and technically manipulated by Accurate International Biotechnology Co., Ltd. Subsequently, these samples were subjected to mechanical and enzymatic dissociation to disaggregate the tissue into single cells or small clusters, while preserving cellular integrity. Following this initial step, the isolated cells or tissue fragments were embedded within a 3D ECM scaffold, such as Matrigel or collagen. The ECM scaffold served as a supportive substrate, promoting cellular self-organization and mimicking native tissue architecture. Additionally, a precisely formulated cocktail of growth factors, cytokines, and signaling molecules tailored to the specific tissue of interest was meticulously formulated and added to the culture medium to facilitate organoid growth and maintenance.

[4] = system: glioblastoma (GBM) patient-derived organoids; test: ATP-based viability assay in patient-derived organoids, GBM; assay type: cell-based; settings: Homo sapiens, GBM PDOs, read-out: IC50, organoid viability
Description: as §1

[5] = Pharmacokinetic study in male SD rats; assay type: in vivo; settings: Sprague-Dawley (SD), rat, plasma; for AUC(0-t): 0–24 h; for MRT last: read-out: MRT(0−t); for MRT inf: read-out: MRT(0−∞)
Description: Male SD rats (180–220 g) were purchased from Beijing Vital River Laboratory Animal Technology Co., Ltd. Blood samples (0.25 mL) were collected from the tail vein at 0.0833, 0.25, 0.5, 1, 2, 4, 6, 8, and 24 h after oral (10 mg/kg) or intravenous (2 mg/kg) administration of compound NP1192. Drug concentrations in the samples were determined by using liquid chromatography–mass spectrometry (LC-MS/MS). The mobile phase consisted of a mixture of solvent A (acetonitrile) and solvent B (formic acid/ultrapure water, 1:1000, v/v). The flow rate of the mobile phase was 0.3 mL/min, and the injection volume was 10 μL.

[6] = Acute toxicity in C57BL/6J mice; settings: male, mouse, in vivo, ip; C57BL/6J mice, intraperitoneal, 14 days survival
Description: (§2) Six-weeks old C57BL/6J male mice were purchased from Guangzhou Southern Medical University Experimental Animal Technology Development Co. The mice were administered intraperitoneally NP1192 (100, 500, 1000 mg/kg). The survival of mice was monitored for 14 days, consecutively.

[7] = system: C57BL/6J mice; test: Acute toxicity in C57BL/6J mice; settings: mouse, in vivo, 1000 mg/kg
Description: as §2

[8] = system: RNA ac4C modification; test: ac4C RNA dot blot in SiHa cells; assay type: cell-based, human; settings: 20 μM, 36 h, vs Remodelin-treated and NAT10-knockdown groups
Description: RNA was extracted from cells via an RNA extraction kit (TransGen, China) and denatured by heating to 65 °C for 5 min in the presence of 2× RNA denaturation buffer (Solarbio, China) followed by an equal amount of 20x SSC buffer (Beyotime, China). A nylon membrane (Yeasen, China) was used to immobilize the denatured RNA by dotting RNA samples onto the membrane and cross-linking the RNA to the membrane via UV light. The samples were stained with methylene blue and photographed. Furthermore, the membrane was blocked with 5% milk and incubated with an anti-ac4C primary antibody (1:1000, Abcam, US) for 12 h. After the unbound primary antibody was washed away, the membrane was incubated with a secondary antibody (1:6000, Elabscience, China). The membrane was then washed to remove unbound secondary antibodies, and a detection reagent (Bio-Rad, US) was added to visualize the RNA bands via chemiluminescence with a ChemiDoc MP Imaging System (Bio-Rad, US).

Question: For `N#Cc1ccc(-c2csc(N(CCCCCCC(=O)N3CCN(c4cccc5c4C(=O)N(C4CCC(=O)NC4=O)C5=O)CC3)N=C3CCCC3)n2)cc1` (centres unmarked) [NP1192], which IC50 ([1]; Homo sapiens, parental SiHa cells, 36 h, read-out: IC50, inhibition of SiHa cell viability) is on record?
Answer: 7.81 µM

Question: And the “IC50 lower than that of Remodelin” value ([1]; SiHa cells)?
Answer: 26.8%

Question: What about the “resistance index (RI = IC50 resistant/parental SiHa)” value ([2]; 76.2/7.814) of the same compound?
Answer: 9.75

Question: What about the IC50 ([2]; Homo sapiens, NP1192^Resist SiHa cells) of the same compound?
Answer: 76.2 µM

Question: What about the IC50 [3] of the same compound?
Answer: 3.05 µM

Question: What about the IC50 [4] of the same compound?
Answer: 13.8 µM

Question: What about the Cmax ([5]; iv, i.v. 2 mg/kg) of the same compound?
Answer: 759 ± 134 ng/mL

Question: What about the AUC(0-t) ([5]; iv, i.v. 2 mg/kg) of the same compound?
Answer: 365 ± 42.6 ng·h/mL

Question: What about the AUC(0-inf) ([5]; iv, i.v. 2 mg/kg) of the same compound?
Answer: 367 ± 43 ng·h/mL

Question: And the Tmax ([5]; iv, i.v. 2 mg/kg)?
Answer: 0.0833 h

Question: And the clearance ([5]; iv, i.v. 2 mg/kg)?
Answer: 91.7 mL/min/kg

Question: What about the half-life ([5]; iv, i.v. 2 mg/kg) of the same compound?
Answer: 0.967 ± 0.214 h

Question: And the MRT last ([5]; iv, i.v. 2 mg/kg)?
Answer: 0.529 ± 0.0268 h

Question: And the MRT inf ([5]; iv, i.v. 2 mg/kg)?
Answer: 0.57 ± 0.0206 h

Question: And the Vd ([5]; iv, i.v. 2 mg/kg, read-out: Vz)?
Answer: 7.6 ± 1.39 L/kg

Question: And the bioavailability ([5]; oral, p.o. 10 mg/kg vs i.v. 2 mg/kg, read-out: oral bioavailability (F))?
Answer: 1.35%

Question: What about the AUC(0-inf) ([5]; po, p.o. 10 mg/kg) of the same compound?
Answer: 29.5 ± 1.59 ng·h/mL

Question: What about the Tmax ([5]; po, p.o. 10 mg/kg) of the same compound?
Answer: 1.67 h

Question: And the half-life ([5]; po, p.o. 10 mg/kg)?
Answer: 2.4 ± 1.15 h

Question: And the MRT last ([5]; po, p.o. 10 mg/kg)?
Answer: 1.56 ± 0.358 h

Question: What about the MRT inf ([5]; po, p.o. 10 mg/kg) of the same compound?
Answer: 2.85 ± 0.862 h

Question: What about the Cmax ([5]; po, p.o. 10 mg/kg) of the same compound?
Answer: 13.9 ± 6.42 ng/mL

Question: What about the AUC(0-t) ([5]; po, p.o. 10 mg/kg) of the same compound?
Answer: 24.7 ± 1.11 ng·h/mL

Question: And the LD50 at 14 days [6]?
Answer: > 1000 mg/kg

Question: And the “tolerability in acute toxicity test” value [7]?
Answer: well-tolerated

Question: What about the “RNA ac4C levels” value [8] of the same compound?
Answer: significant reduction in ac4C levels
